Reference: patent publication US7101878B1 (Agouron Pharmaceuticals, Inc., priority 1998, dated 2006)
Read-outs that look alike come from different tables or passages of the source.

Biological target: T1, human GnRH receptor (Homo sapiens, UniProt P30968)
T1 construct: expressed in transfected cells; host or cells: HEK 293 (hGnRH-R/293, from Dr. Stuart Sealfon)
T1 sequence (P30968 1-328): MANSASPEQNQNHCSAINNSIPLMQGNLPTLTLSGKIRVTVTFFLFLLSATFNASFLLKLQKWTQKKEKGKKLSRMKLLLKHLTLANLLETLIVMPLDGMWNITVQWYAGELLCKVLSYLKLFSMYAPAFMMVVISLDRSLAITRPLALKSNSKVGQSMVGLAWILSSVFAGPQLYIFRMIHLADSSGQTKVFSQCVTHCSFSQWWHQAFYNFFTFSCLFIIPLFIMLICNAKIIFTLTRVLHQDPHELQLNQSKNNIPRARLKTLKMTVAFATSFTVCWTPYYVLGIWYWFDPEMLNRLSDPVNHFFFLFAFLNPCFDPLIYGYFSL
Assay: Radioligand binding, 125I-GnRH-A displacement, membranes of HEK 293 cells with human GnRH receptor
Conditions: for remaining activity at 10 µM / remaining activity at 1 µM: substrate remaining, closer to zero = closer to 100% inhibition; for remaining activity at 10 µM: 10 uM compound, read-out: S%R 10 uM hGnRHR; for remaining activity at 1 µM: 1 uM compound, read-out: S%R 1 uM hGnRHR; for IC50: read-out: hGnRH IC50
Method: All compounds were diluted in 1% DMSO (final assay concentration) in binding assay buffer. […] Reactions were terminated by rapid filtration onto 96-well Packard GF/C filters soaked in 0.1% polyethyleneimine. Filters were washed three times with PBS buffer, dried and counted on a Packard Topcount by liquid scintillation counting.
Assay conditions were identical for assessing compound activities at other species. […] IC50 values for control peptides and test compounds were calculated utilizing GraphPad Prism™ software.
Crude compounds were tested using the competitive radioligand binding assay described above.
The reaction mixture was vortexed and incubated for 1 min at room temperature. After one min, the mixture was vortexed and allowed to incubate for an additional minute. 2 ml of 0.5 M acetic acid/1% BSA was added to the reaction tube and the mixture was added to a C18 Sep-Pak cartridge. The cartridge was washed with subsequent washes of 5 ml H2O and 5 ml 0.5M acetic acid and then eluted with 5×1 ml of 60% CH3CN/40% 0.5M acetic acid. The eluate was diluted with 3× volume of HPLC buffer A (0.1% TFA in H2O) and loaded onto a C18 column. The iodinated product was eluted over 20-25 min with a gradient of 25-100% CH3CN containing 0.1% TFA. The radioactive fractions (750 ed/fraction) are collected into clean polypropylene tubes containing 100 μl of 10% BSA. Fractions were assessed for biological activity by radioligand binding.
S%R is the substrate remaining.

[1] = 1 uM, read-out: % Inhib. @ 1 uM hGnRH
[2] = 1 h, repeat of % Inhib. at 1 uM, read-out: Repeats @ 1 uM hGnRH

inhibition at 1 µM [1] [%] | inhibition at 1 µM [2] [%] | Compound | other results
86 | 90 | Cc1cc2c(cc1Cc1ccc(C(=O)NCCCc3ccccc3)o1)C(C)(C)CCC2(C)C [drawing 990] | –
– | – | Cc1cc2c(cc1Cc1ccc(C(=O)NC3CCCc4ccccc43)o1)C(C)(C)CCC2(C)C (centres unmarked) [drawing 1150] | % Inhib. @ 1 uM hGnRH (1 uM): 16%; Repeats @ 1 uM hGnRH (repeat of % Inhib. at 1 uM): 32
– | – | COC(=O)c1cc(OC)c(OC)c(OO)c1NC(=O)c1ccc(Cc2cc3c(cc2C)C(C)(C)CCC3(C)C)o1 [Compound 386] | remaining activity at 10 µM (1 h): 27%
– | – | COc1ccccc1NC(=O)c1ccc(Cc2cc3c(cc2C)C(C)(C)CCC3(C)C)o1 [Compound 358] | remaining activity at 10 µM (1 h): 9%
– | – | Cc1ccc(CNC(=O)c2ccc(Cc3cc4c(cc3C)C(C)(C)CCC4(C)C)o2)cc1 [Compound 435] | remaining activity at 1 µM (1 h): 12%
– | – | Cc1cc2c(cc1Cc1ccc(C(=O)Nc3c(O)cccc3OC(=O)c3ccc(Cc4cc5c(cc4C)C(C)(C)CCC5(C)C)o3)o1)C(C)(C)CCC2(C)C [Compound 193] | IC50: > 10000 nM
– | – | Cc1cc2c(cc1Cc1ccc(C(=O)NCc3cccc([N+](=O)[O-])c3)o1)C(C)(C)CCC2(C)C [Compound 451] | remaining activity at 1 µM (1 h): 24%
-12 | -6 | Cc1cc2c(cc1Cc1ccc(C(=O)N3CCN(c4ccc(O)cc4)CC3)o1)C(C)(C)CCC2(C)C | –
-18 | 6 | Cc1cc2c(cc1Cc1ccc(C(=O)N3CCN(c4ccc([N+](=O)[O-])cc4)CC3)o1)C(C)(C)CCC2(C)C | –
– | – | Cc1cc2c(cc1Cc1ccc(C(=O)Nc3c(O)cccc3O)o1)C(C)(C)CCC2(C)C [Compound 189] | IC50: 940 nM
-11 | -9 | Cc1cc2c(cc1Cc1ccc(C(=O)N(C)[C@@H](C)[C@@H](O)c3ccccc3)o1)C(C)(C)CCC2(C)C | –
– | – | Cc1cc2c(cc1Cc1ccc(C(=O)NCc3nc4ccccc4[nH]3)o1)C(C)(C)CCC2(C)C [drawing 1060] | % Inhib. @ 1 uM hGnRH (1 uM): 101%; Repeats @ 1 uM hGnRH (repeat of % Inhib. at 1 uM): 99
80 | 90 | Cc1cc2c(cc1Cc1ccc(C(=O)NCCc3cccnc3)o1)C(C)(C)CCC2(C)C [drawing 1032] | –
– | – | CCc1ccc(C)nc1NC(=O)c1ccc(Cc2cc3c(cc2C)C(C)(C)CCC3(C)C)o1 [Compound 375] | remaining activity at 10 µM (1 h): 16%
– | – | COc1cccc(C)c1NC(=O)c1ccc(Cc2cc3c(cc2C)C(C)(C)CCC3(C)C)o1 [Compound 61] | IC50: 760 nM
– | – | Cc1cc2c(cc1Cc1ccc(C(=O)NCCOCCO)o1)C(C)(C)CCC2(C)C [Compound 401] | remaining activity at 1 µM (1 h): 32%
– | – | Cc1cc2c(cc1Cc1ccc(C(=O)N(CCCO)Cc3ccccn3)o1)C(C)(C)CCC2(C)C [Compound 214] | IC50: > 10000 nM
84 | 89 | Cc1cc2c(cc1Cc1ccc(C(=O)NCC3CCCC(CNc4cccc(NCC5CCCO5)n4)C3)o1)C(C)(C)CCC2(C)C (centres unmarked) | –
81 | 82 | Cc1cc2c(cc1Cc1ccc(C(=O)NCc3cccc(F)c3)o1)C(C)(C)CCC2(C)C [drawing 1195] | –
13 | 33 | Cc1cc2c(cc1Cc1ccc(C(=O)NCCCN(C)CCCN)o1)C(C)(C)CCC2(C)C [drawing 1005] | –
– | – | COc1cccc(OC)c1NC(=O)c1ccc(Cc2cc3c(cc2C)C(C)(C)CCC3(C)C)s1 [Compound 146] | IC50: > 10000 nM
-29 | -31 | Cc1cc2c(cc1Cc1ccc(C(=O)NC3=NN(c4c(Cl)cc(Cl)cc4Cl)C(=O)C3)o1)C(C)(C)CCC2(C)C | –
62 | 69 | Cc1cc2c(cc1Cc1ccc(C(=O)NCc3cccc(Cl)c3Cl)o1)C(C)(C)CCC2(C)C [drawing 1102] | –
-20 | -26 | Cc1cc2c(cc1Cc1ccc(C(=O)NCCCNCCCCNCCCN)o1)C(C)(C)CCC2(C)C [drawing 1034] | –
86 | 88 | COc1ccccc1CNC(=O)c1ccc(Cc2cc3c(cc2C)C(C)(C)CCC3(C)C)o1 [drawing 1078] | –
49 | 58 | Cc1cc2c(cc1Cc1ccc(C(=O)NC3CC3)o1)C(C)(C)CCC2(C)C [drawing 1149] | –
– | – | COc1ccc(OC)c(OC)c1Cc1ccc(C(=O)Nc2c(OC)cccc2OC)o1 [Compound 211] | IC50: 1320 nM
-10 | -9 | Cc1cc2c(cc1Cc1ccc(C(=O)NC(C)c3ccc(O)cc3)o1)C(C)(C)CCC2(C)C (centres unmarked) | –

inhibition at 1 µM [1] [%] | inhibition at 1 µM [2] [%] | Compound | other results
– | – | Cc1cc2c(cc1Cc1ccc(C(=O)NCCCN3CCCC3=O)o1)C(C)(C)CCC2(C)C [Compound 424] | remaining activity at 1 µM (1 h): 31%
14 | 20 | Cc1cc2c(cc1Cc1ccc(C(=O)NCCSCc3c(Cl)cccc3Cl)o1)C(C)(C)CCC2(C)C | –
47 | 52 | COc1ccc(CCNC(=O)c2ccc(Cc3cc4c(cc3C)C(C)(C)CCC4(C)C)o2)cc1OC [drawing 993] | –
– | – | COc1ccc(CCNC(=O)c2ccc(Cc3cc4c(cc3C)C(C)(C)CCC4(C)C)o2)cc1 [Compound 433] | remaining activity at 1 µM (1 h): 54%
– | – | Cc1cc2c(cc1Cc1ccc(C(=O)Nc3ccc4[nH]c(O)nc4c3)o1)C(C)(C)CCC2(C)C [Compound 355] | remaining activity at 10 µM (1 h): 20%
– | – | Cc1cc2c(cc1Cc1ccc(C(=O)NCc3cccs3)o1)C(C)(C)CCC2(C)C [Compound 415] | remaining activity at 1 µM (1 h): 18%
10 | 2 | Cc1cc2c(cc1Cc1ccc(C(=O)NC(CO)CC3CCCCC3)o1)C(C)(C)CCC2(C)C (centres unmarked) [drawing 1215] | –
– | – | COCCNC(=O)c1ccc(Cc2cc3c(cc2C)C(C)(C)CCC3(C)C)o1 [Compound 432] | remaining activity at 1 µM (1 h): 42%
– | – | CSc1ccccc1NC(=O)c1ccc(Cc2cc3c(cc2C)C(C)(C)CCC3(C)C)o1 [Compound 363] | remaining activity at 10 µM (1 h): 14%
83 | 84 | Cc1cc2c(cc1Cc1ccc(C(=O)NCCc3ccncc3)o1)C(C)(C)CCC2(C)C [drawing 1025] | –
-24 | 9 | Cc1cc2c(cc1Cc1ccc(C(=O)N3CCN(c4ccc(F)cc4)CC3)o1)C(C)(C)CCC2(C)C | –
– | – | Cc1cc2c(cc1Cc1ccc(C(=O)NCCc3ccccc3Cl)o1)C(C)(C)CCC2(C)C [Compound 55] | IC50: 570 nM
– | – | COc1cc(OC)c(NC(=O)c2ccc(C(=O)c3cc4c(cc3C)C(C)(C)CCC4(C)C)o2)c(OC)c1 [Compound 190] | IC50: 420 nM
-2 | 3 | Cc1cc2c(cc1Cc1ccc(C(=O)N(Cc3ccccc3)Cc3ccccc3)o1)C(C)(C)CCC2(C)C | –
– | – | Cc1cc2c(cc1Cc1ccc(C(=O)NCc3ccc(Br)cc3)o1)C(C)(C)CCC2(C)C [Compound 453] | remaining activity at 1 µM (1 h): 50%
-11 | -8 | Cc1cc2c(cc1Cc1ccc(C(=O)NCCc3ccccc3Oc3ccccc3)o1)C(C)(C)CCC2(C)C [drawing 1040] | –
57 | 58 | Cc1cc2c(cc1Cc1ccc(C(=O)NCCCN3CCOCC3)o1)C(C)(C)CCC2(C)C [drawing 978] | –
48 | 55 | CCOc1ccccc1CNC(=O)c1ccc(Cc2cc3c(cc2C)C(C)(C)CCC3(C)C)o1 [drawing 1096] | –
– | – | Cc1cc2c(cc1Cc1ccc(C(=O)Nc3cccc(C#N)c3)o1)C(C)(C)CCC2(C)C [Compound 351] | remaining activity at 10 µM (1 h): 24%
– | – | Cc1cc2c(cc1Cc1ccc(C(=O)NCCc3ccccc3Cl)o1)C(C)(C)CCC2(C)C [Compound 418] | remaining activity at 1 µM (1 h): 42%
– | – | Cc1cc2c(cc1Cc1ccc(C(=O)NCc3cccc(F)c3)o1)C(C)(C)CCC2(C)C [Compound 443] | remaining activity at 1 µM (1 h): 19%
– | – | COc1cc(C)c(Cl)c(C)c1Cc1ccc(C(=O)NCc2cnc(C)cn2)o1 [Compound 237] | IC50: > 10000 nM
-5 | 8 | Cc1cc2c(cc1Cc1ccc(C(=O)NCCc3ccc(Cl)c(Cl)c3)o1)C(C)(C)CCC2(C)C | –
– | – | COc1cc(OC)c(NC(=O)c2ccc(Cc3c(OC)ccc4c3CCCC4=O)o2)c(OC)c1 [Compound 223] | IC50: 1660 nM
– | – | COc1ccccc1CCNC(=O)c1ccc(Cc2cc3c(cc2C)C(C)(C)CCC3(C)C)o1 [Compound 419] | remaining activity at 1 µM (1 h): 36%
26 | 26 | Cc1cc2c(cc1Cc1ccc(C(=O)NCCCN3CCN(C)CC3)o1)C(C)(C)CCC2(C)C [drawing 980] | –
-25 | 3 | Cc1cc2c(cc1Cc1ccc(C(=O)N3CCN(c4cccc(C(F)(F)F)c4)CC3)o1)C(C)(C)CCC2(C)C | –
